In patent publication US5336757A, “Antibacterial peptide and methods of use” (Harbor Branch Oceanographic Institution, Inc., priority 1992, dated 1994):
Converted amounts (≈) assume the structure as drawn. Bridge positions count the residues as written; N and C are the ends. Square brackets hold non-standard residues; d marks the D form. Peptide text beside a SMILES is read from it. * marks the point of attachment. Phe(4-Br) = N[C@@H](Cc1ccc(Br)cc1)C(=O)O; Ile(3-Me) = CCC(C)(C)[C@H](N)C(=O)O; Cya = N[C@@H](CS(=O)(=O)O)C(=O)O; NMeQ = CN[C@@H](CCC(N)=O)C(=O)O; Tle = CC(C)(C)[C@H](N)C(=O)O; For = O=C*

Experiments:
[1] = test system: A549 human lung carcinoma cells; details: 72 h
Experimental: P388 murine leukemia cells obtained from Dr. J. Mayo, National Cancer Institute, Bethesda, Md., and A549 cells were obtained from the American Type Culture Collection, Rockville, Md. The P388 cells were maintained in Roswell Park Memorial Institute medium 1640 (RPMI-1640) supplemented with 10% horse serum and cultured in plastic tissue culture flasks and kept in an incubator at 37° C. in humidified air containing 5% CO2. The A549 cells were similarly maintained in RPMI-1640 but supplemented with 10% fetal bovine serum. Antibiotic-free stock cultures of P388 and A549 cells were subcultured to 10^5 cells/ml by dilutions in fresh growth medium at 2 to 5 day intervals. […]
To quantitate the effects of polydiscamide A or its analogs on cell proliferation, 75 μl warm growth medium containing 5 mg/ml MTT was added to each well. […] To spectrophotometrically quantitate formation of reduced formazan, plates were centrifuged (900 g, 5 minutes), culture fluids were removed by aspiration, and 200 μl of acidified isopropanol (2 ml concentrated HCl/L isopropanol) added per well. The absorbance of the resulting solutions was measured at 570 nm with a plate reader (MR700 Microplate Reader, Dynatech Laboratories, Chantilly, Va.).

Bacillus subtilis = type: cell-based
Experimental: Bacillus subtilis: Standard spore stocks (ATCC strain 6633) were purchased from Difco (#0453-36-0). Two-fold dilutions of polydiscamide A were prepared in 50 μL volumes of a suitable solvent using 96-well microtiter plates. In a separate 96-well plate, 35 μL volumes of Mueller-Hinton broth were placed in each well. The compound (5 μL) was then transferred to the broth. An inoculum of B. subtilis in the appropriate medium was added to give a cell density of 1000 cells/mL and a total volume of 50 μL. Plates were incubated at 37° C. overnight.

[2] = test system: P388 murine leukemia cells; details: 48 h
Experimental: Polydiscamide A was tested for toxicity against P388 murine leukemia cells and A549 human lung carcinoma cells.
The P388 cells were maintained in Roswell Park Memorial Institute medium 1640 (RPMI-1640) supplemented with 10% horse serum and cultured in plastic tissue culture flasks and kept in an incubator at 37° C. in humidified air containing 5% CO2. The A549 cells were similarly maintained in RPMI-1640 but supplemented with 10% fetal bovine serum. Antibiotic-free stock cultures of P388 and A549 cells were subcultured to 10^5 cells/ml by dilutions in fresh growth medium at 2 to 5 day intervals. […]
To quantitate the effects of polydiscamide A or its analogs on cell proliferation, 75 μl warm growth medium containing 5 mg/ml MTT was added to each well. […] To spectrophotometrically quantitate formation of reduced formazan, plates were centrifuged (900 g, 5 minutes), culture fluids were removed by aspiration, and 200 μl of acidified isopropanol (2 ml concentrated HCl/L isopropanol) added per well. The absorbance of the resulting solutions was measured at 570 nm with a plate reader (MR700 Microplate Reader, Dynatech Laboratories, Chantilly, Va.). […]

IC50 against cultured human lung carcinoma cells (A549) [1]: 0.66 µg/mL (≈ 0.386 µM)
MIC against B. subtilis (Bacillus subtilis): 3.1 µg/mL (≈ 1.81 µM)
IC50 against mouse leukemia cells (P388) [2]: 0.96 µg/mL (≈ 0.561 µM)
Compound: CCC(C)(C)[C@H](NC(=O)[C@@H](NC(=O)[C@@H]1CCCN1C(=O)[C@H](Cc1ccc(Br)cc1)NC(=O)[C@H](C)NC=O)C(C)(C)C)C(=O)N[C@@H](Cc1c[nH]c2ccccc12)C(=O)N[C@@H](CCCNC(=N)N)C(=O)N[C@@H](CS(=O)(=O)O)C(=O)N[C@@H]1C(=O)N(C)[C@@H](CCC(N)=O)C(=O)N[C@@H](C(C)C)C(=O)N2CCC[C@H]2C(=O)N[C@@H](CC(N)=O)C(=O)O[C@@H]1C [polydiscamide A] (For-A[Phe(4-Br)]P[Tle][Ile(3-Me)]WR[Cya]T[NMeQ]VPN; ester 9-C)
